Publication PMC9782626, “Copper(II) Complexes of 5–Fluoro–Salicylaldehyde: Synthesis, Characterization, Antioxidant Properties, Interaction with DNA and Serum Albumins” (Molecules, 2022)
Like-named read-outs stand apart in the source and are kept apart here.

Tests used:
[1] = DPPH radical scavenging assay; format: biochemical; conditions: compound 0.1 mM
Text: (§1) For the above reasons, the antioxidant ability of 5–F–saloH and Cu(II) complexes 1–5 has been evaluated via their scavenging activity towards DPPH and ABTS radicals, as well as the ability to reduce H2O2, and in comparison with that of well-known antioxidant agents such as nordihydroguaiaretic acid (NDGA), butylated hydroxytoluene (ΒHΤ), 6–hydroxy–2,5,7,8–tetramethylchromane–2–carboxylic acid (trolox) and L–ascorbic acid (these are the most commonly used standard reference antioxidant agents). The DPPH-radical assay was developed in the 1950s and this method has been used to assess the antioxidant capacity of several metal complexes. The DPPH–scavenging ability of compounds has often been related to their ability to prevent ageing, cancer and inflammation. The ability of a compound to scavenge the cationic ABTS radicals (ABTS^+●) has been considered a measure of its total antioxidant activity. Further, hydrogen peroxide has the ability to penetrate biological membranes and, although it is not very reactive itself, it can sometimes be toxic since it may give rise to hydroxyl radicals in cells. For this reason, the removal of H2O2 is very important for the protection of living systems. When a compound is incubated with H2O2 using a peroxidase assay system, the loss of H2O2 can be measured.
(§2) S1 Antioxidant activity assay
(§3) The antioxidant activity of the compounds was evaluated via their ability to scavenge in vitro free radicals such as DPPH and ABTS and to reduce H 2O2. All the experiments were carried out at least in triplicate and the standard deviation of absorbance was less than 10% of the mean.
S1.1 Determination of the reducing activity of the radical DPPH
To an ethanolic solution of DPPH (0.1 mM) an equal volume solution of the compounds (0.1 mM) in ethanol was added. Absolute ethanol was also used as control solution. The absorbance at 517 nm was recorded at room temperature after 30 and 60 min, in order to examine the possible existence of a potential time-dependence of the DPPH radical scavenging act iv ity [S 1]. The DPPH -scavenging activity of the compounds was expressed as the percentage reduction of the absorbance values of the initial DPPH solution ( DPPH%). N DGA and BHT were used as reference comp ounds. […]

[2] = ABTS radical cation scavenging assay; format: biochemical; conditions: compound 0.1 mM, 1 min
Text: as §1, §2
The antioxidant activity of the compounds was evaluated via their ability to scavenge in vitro free radicals such as DPPH and ABTS and to reduce H 2O2. All the experiments were carried out at least in triplicate and the standard deviation of absorbance was less than 10% of the mean. […]
S1.2 Assay of radical cation ABTS-scavengin g activity
The ABTS assay was performed to determine the activity of the compounds to scavenge the radical cation ABTS. Initially, a water solution of ABTS was prepared (2 mM). ABTS radical cation (ABTS+·) was produced by the reaction of ABTS stock solution with potassium persulfate (0.17 mM) and the mixture was stored in the dark at room temperature for 12-16 h before its use. The ABTS was oxidized incompletely because the stoichiometric reaction ratio of ABTS and potassium persulfate is 1:0.5. The absorbance became maximal and stable only after more than 6 h of reaction although the oxidation of the ABTS started immediately. The radical was stable in this form for more than 2 days when allowed to stand in the dark at room temperature. Afterwards, the ABTS+· solution was diluted in ethanol to an absorbance of 0.70 at 734 nm and 10 μL of diluted compounds or standards (0.1 mM) in DMSO were added. The absorbance was recorded out exactly 1 min after init ial m ix in g [S 1]. The ABTS radical scavenging act ivit y was expressed as the percentage inhibition of the absorbance of the initial ABTS solution (ABTS%). Trolox was used as an appropriate standard. […]

CT DNA = conditions: cited from earlier work
[3] = tested on: EB–DNA conjugate (CT DNA); set-up: method as in PMID 35890184; conditions: cited from earlier work
[4] = set-up: method as in PMID 35890184; conditions: cited from earlier work
[5] = target: T1, bovine serum albumin (BSA) (Bos taurus, UniProt P02769); set-up: method as in PMID 35890184; conditions: cited from earlier work
T1 construct: purchased Sigma–Aldrich Co
T1 sequence (P02769 25-607): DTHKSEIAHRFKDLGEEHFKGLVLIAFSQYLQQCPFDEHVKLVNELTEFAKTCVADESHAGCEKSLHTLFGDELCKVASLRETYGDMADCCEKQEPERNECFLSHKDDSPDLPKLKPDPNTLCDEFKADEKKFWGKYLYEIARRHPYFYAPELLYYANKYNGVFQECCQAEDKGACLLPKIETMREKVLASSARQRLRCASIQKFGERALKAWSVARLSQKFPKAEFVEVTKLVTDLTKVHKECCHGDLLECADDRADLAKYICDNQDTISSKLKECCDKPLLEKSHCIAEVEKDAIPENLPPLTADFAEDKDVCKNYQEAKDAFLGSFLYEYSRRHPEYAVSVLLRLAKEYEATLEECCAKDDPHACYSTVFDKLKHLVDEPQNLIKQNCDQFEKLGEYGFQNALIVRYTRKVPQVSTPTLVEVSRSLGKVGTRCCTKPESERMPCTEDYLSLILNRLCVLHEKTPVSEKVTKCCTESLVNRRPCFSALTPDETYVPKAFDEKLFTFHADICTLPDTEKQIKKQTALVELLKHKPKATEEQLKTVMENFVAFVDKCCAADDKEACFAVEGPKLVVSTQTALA

[6] = set-up: method as in PMID 35890184; conditions: cited from earlier work; remark: listed apart in the source
[7] = target: T2, human serum albumin (HSA) (Homo sapiens, UniProt P02768); set-up: method as in PMID 35890184; conditions: cited from earlier work
T2 construct: purchased Sigma–Aldrich Co
T2 sequence (P02768 25-609): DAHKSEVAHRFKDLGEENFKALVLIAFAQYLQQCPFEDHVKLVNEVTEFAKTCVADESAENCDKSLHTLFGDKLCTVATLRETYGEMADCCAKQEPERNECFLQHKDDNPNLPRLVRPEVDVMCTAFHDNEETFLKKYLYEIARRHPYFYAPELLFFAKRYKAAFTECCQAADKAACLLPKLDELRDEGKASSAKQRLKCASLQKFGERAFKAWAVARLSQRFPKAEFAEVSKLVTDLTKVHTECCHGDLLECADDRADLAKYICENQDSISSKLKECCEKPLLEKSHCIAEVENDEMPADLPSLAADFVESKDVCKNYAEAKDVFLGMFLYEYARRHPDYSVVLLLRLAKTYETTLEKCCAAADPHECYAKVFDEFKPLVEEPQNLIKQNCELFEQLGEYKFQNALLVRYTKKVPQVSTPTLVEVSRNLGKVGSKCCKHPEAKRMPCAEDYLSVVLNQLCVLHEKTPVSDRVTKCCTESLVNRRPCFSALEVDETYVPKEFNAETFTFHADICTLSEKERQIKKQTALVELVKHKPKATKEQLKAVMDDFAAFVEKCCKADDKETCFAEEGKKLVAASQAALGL

[8] = set-up: method as in PMID 35890184; conditions: cited from earlier work; remark: listed apart in the source
[9] = Reduction of hydrogen peroxide; format: biochemical; conditions: compound 0.1 mM, 10 min, pH 7.4
Text: as §1, §2, §3
S1.1 Determination of the reducing activity of the radical DPPH […]
S1.3 Reduction of hydrogen peroxide
The ability of the com pounds to reduce hydrogen peroxide (H2O2) was est imated according to the method descr ibed in the literature [S2]. The reaction mixture contained 20 μL of each of the tested compounds (0.1 mM) and 5 μL H2O 2 solution (40 mM) in phosphate buffer (50 mM, pH = 7.4). The absorbance was measure d at 230 nm after 10 min.
The antioxidant activity (reduction of hydrogen peroxide) of the compounds wa s […]
expressed as the percentage decrease of t he init ial H 2O2 solution (H 2O2%). L-ascor b ic ac id (or vitamin C) was use d as a standard. […]
[DNA] = [DNA] + 1 (eq. S1) […]
where [DNA] is the concentration of DNA in base pa irs, εA = Aobsd/[compound ], εf = the extinction coefficient for the free compound and ε b = the extinction coefficient for the compound in the fully bound form. Kb is given by the ratio of slope to the y intercept in plots [DNA]/(εA-εf) versus[DNA].
S2.2CT DNA -binding studie s by viscosity measurements
The interaction of compounds with DNA has been evaluated via the study of the CT DNA viscosity ([DNA] = 0.1 mΜ) in a buffer solution (150 mM NaCl and 15 mM trisodium citrate at pH 7.0) in the presence of increasing amount of complexes (up to the value of r = 0.36). The obtained data are presented as (η/η 0)1/3 versus r, where η is the viscosity of DNA in the presence of the compound, and η0 is the viscosity of DNA alone in buffer solution.
S2.3 EB -displa cement studie s
The competition of the complexes with EB was investigated by fluorescence emission spectroscopy in order to examine whether the compounds can displace EB from its DNA-EB conjugate. The CT DNA-EB complex was formed by pre-treating 20 μM EB and 26 μM CT DNA in buffer (150 mM NaCl and 15 mM trisodium citrate at pH = 7.0).
The possible displacement of EB by the compounds and su bseq uently t he ir intercalating effect was studied by the stepwise addition of a certain amount of the solution of each

## CC(Cc1ccc(O)c(O)c1)C(C)Cc1ccc(O)c(O)c1 (stereo not drawn) [NDGA, nordihydroguaiaretic acid, reference compound]
[1]
  DPPH% (30 min), % DPPH–scavenging ability: 87.08 ± 0.12%
  DPPH% (60 min), % DPPH–scavenging ability: 87.47 ± 0.12%

## Cc1c(C)c2c(c(C)c1O)CCC(C)(C(=O)O)O2 (stereo not drawn) [Trolox, 6–hydroxy–2,5,7,8–tetramethylchromane–2–carboxylic acid, reference compound]
[2]
  ABTS%, % ABTS–scavenging activity: 98.10 ± 0.48%

## O=Cc1cc(F)ccc1O [5–F–saloH, 5–fluoro–salicylaldehyde]
CT DNA; band at 334 nm
  ΔA/Aο, percentage of hyper-/hypo-chromism upon addition of CT DNA: −30%
CT DNA; band at 421 nm
  ΔA/Aο, percentage of hyper-/hypo-chromism upon addition of CT DNA: > +50%
[3]
  EB–DNA quenching constant kq: 1.73 (±0.05) × 10^12 M^−1 s^−1
  Stern–Volmer constant Ksv (EB–DNA): 3.79 (±0.11) × 10^4 M^−1
  ΔΙ/Ιο, percentage of EB–DNA fluorescence quenching: 51.3%
[3]; λemission = 592 nm, final value
  EB–DNA relative fluorescence emission intensity I/Io remaining (% of initial): 48.7%
[4]
  ABTS%, % ABTS–scavenging activity: 19.57 ± 0.58%
[5]
  BSA-binding constant K: 4.31 (±0.31) × 10^4 M^−1
  BSA-quenching constant kq: 1.98 (±0.08) × 10^12 M^−1 s^−1
  ΔΙ/Ιο, quenching of the BSA fluorescence: 25.7%
[5]; final value
  % relative BSA fluorescence emission intensity I/Io remaining (% of initial): 74.3%
[6]
  H2O2%, H2O2–reducing activity: 71.84 ± 0.95%
[7]
  HSA-binding constant K: 4.65 (±0.35) × 10^4 M^−1
  HSA-quenching constant kq: 1.96 (±0.07) × 10^12 M^−1 s^−1
  ΔΙ/Ιο, quenching of the HSA fluorescence: 25.7%
[7]; final value
  % relative HSA fluorescence emission intensity I/Io remaining (% of initial): 74.3%
[8]; 30 min
  DPPH% (30 min), % DPPH–scavenging ability: 3.96 ± 1.16%
[8]; 60 min
  DPPH% (60 min), % DPPH–scavenging ability: 5.56 ± 1.06%

## O=C1O[C@H]([C@@H](O)CO)C(O)=C1O [L–ascorbic acid, reference compound]
[9]
  H2O2%, H2O2–reducing activity: 60.80 ± 0.20%

## Cc1cc(C(C)(C)C)c(O)c(C(C)(C)C)c1 [BHT, butylated hydroxytoluene, reference compound]
[1]
  DPPH% (30 min), % DPPH–scavenging ability: 61.30 ± 1.16%
  DPPH% (60 min), % DPPH–scavenging ability: 79.78 ± 1.12%
